Measured values: US11124536B2, “Uridine nucleoside derivatives, compositions and methods of use” (Tufts University, priority 2013, dated 2021)
Entries after “also recorded” stand apart in the source; their conditions may differ.

Key:
[1] = system: PSAPP mice; assay: Postmortem immunohistochemistry of amyloid beta plaque load in cortex and hippocampus; format: in vivo
Procedure: Mice were perfused transcardially with 4% paraformaldehyde and 40 μm Coronal sections were collected. Sections were sequentially incubated in 0.3% H2O2 for 10 minutes, blocking solution for 2 hrs, blocking solution containing the primary antibody (rabbit anti-beta1-42; rabbit anti-beta1-40, from Chemicon International and rat anti-CD45) for 48 hours at 4° C., and blocking solution containing biotinylated antibody or fluorescently-labeled antibody for 2 hours at room temperature. Sections were visualized in a bright field microscope or a confocal microscope, and the optical density was obtained using MetaMorph software.
To generate these graphs showing plaque load, mice were euthanized, brain sections cut and antibodies directed against Aβ 42 were used to disclose Aβ plaques. Images were acquired digitally and an algorithm was applied to threshold the image so that plaques were isolated from the background. The algorithm then calculated the percent area of the field of view occupied by the plaques.
Brain samples were collected for Abeta analysis with immunostaining. Brains samples were collected after transcardial perfusion with phosphate buffer and 4% paraformaldehyde. Floating brain sections (40 micron) were collected using a microtome. Immunostaining for Aβ40 and Aβ42 were performed according to previously established protocol. Images with DAB staining were collected with brightfield microscopy and analyzed with ImageJ Macro. All data analysis and statistics were performed in GraphPad Prism 6.0.

[2] = system: PSAPP mice; assay: Contextual fear conditioning test (freezing %); format: in vivo
Procedure: On day one, animals were trained in a fear conditioning apparatus for a total of 7 minutes with a two-pairing paradigm of cue and mild foot shock (a 30-s acoustic-conditioned stimulus, 80 dB; a 2-s shock stimulus, 0.5 mA). To evaluate contextual fear learning, the animals were returned to the training context 24 hours post-training, and freezing behavior was scored for 5 minutes. Freezing behavior was monitored by MotorMonitor (Hamilton Kinder) and scored every 5 seconds.
This represents a decrease in the cognitive impairment observed in the untreated mice.

[3] = system: PSAPP mice; assay: Multiplex analysis of circulating plasma cytokine levels; format: in vivo
Procedure: Inflammatory cytokines were assessed in mouse plasma of both wild type and PS1/APP mice (Alzheimer's mouse model) and the impact of intraperitoneal delivery of the diphosphate derivative of compound 5 on circulating cytokines was assessed. […] 24 hours following the final injection, plasma was collected. Wildtype, age matched littermates and PSAPP mice (>6 months of age) were treated either with vehicle (phosphate buffered saline) or vehicle containing compound.
As part of the study described in Example 16, the levels of numerous cytokines in plasma of mice treated with vehicle or compound 5 were also evaluated. As described in Example 16, treatment was initiated when the mice were approximately 3 months old. PSAPP mice were treated for 100 days with daily injections of 10 μg/kg of compound 5 or vehicle. Following treatment and the fear conditioning task experiment, plasma was taken for multiplex cytokine analysis of circulating cytokine levels in vehicle-treated versus compound-treated PSAPP mice. Cytokine levels are assayed using a multi-plex system where beads are labelled with capture antibody specific for each analyte tested. Each bead set is coupled to a specific capture antibody and is distinguishable from beads coupled to a different capture antibody. Thus, the levels of each analyte can be evaluated and distinguished. […] In FIGS. 17-20, compound 5 is indicated along the x-axis as “compound”.

[4] = Oral bioavailability; details: in vivo
[5] = Half-life in human whole blood; format: in vitro ADME
[6] = system: human THP-1 cells; assay: Cytokine release from THP-1 cells into culture medium (multiplex cytokine analysis); format: cell-based; details: 24 hours
Procedure: THP-1 cells, a human cell line derived from monocytes, were treated in vitro with vehicle, the P2Y6 receptor antagonist MRS 2578, or compound 5, singly or in combination. THP-1 cells were seeded in 24 well plates at a density of 4×10^5 cells/well in culture medium for 24 hours. Thereafter, vehicle, compound 5, or MRS 2578 (singly or in combination) were added to the cultures for 24 hours. Subsequently the culture medium was aspirated and subjected to multiplex cytokine analysis. Data are presented as means+/−sem. MRS 2578 has a molecular weight of about 472 and is also described using CAS number 711019-86-2.

[7] = Cmax at the effective dose; details: mouse, in vivo; dose 10 ug/kg

bioavailability [4]: 72.2% | half-life [5]: 16.4 h | Cmax [7]: 13 nM
Compound: O=C1C=CC([C@@H]2O[C@H](CO)C(O)C2O)C(=O)N1Cc1noc2ccccc12 (stereo partly shown) [compound 5]
size distribution of remaining plaques ([1]; 10 μg/kg i.p. once per day for 7 days, PS1/APP mice 26 weeks): significantly reduced | Aβ40 plaque burden ([1]; 10 μg/kg i.p. once per day for 7 days, PS1/APP mice 26 weeks, cortex, FIG. 13A): significantly reduced | Aβ42 plaque burden ([1]; 10 μg/kg i.p. once per day for 7 days, PS1/APP mice 26 weeks, cortex, FIG. 13B): significantly reduced | plaque burden vs vehicle ([1]; Example 16: 10 μg/kg i.p. daily 100 days from approx. 3 months old, FIG. 16): decrease; also recorded: reduced | amyloid beta accumulation (plaque load) in the cortex ([1]; Example 18: 10 μg/kg i.p. daily 100 days, FIG. 22A, p<0.01): decreased | amyloid beta accumulation (plaque load) in the hippocampus ([1]; Example 18: 10 μg/kg i.p. daily 100 days, FIG. 22B, p<0.02): decreased | amyloid beta accumulation in the hippocampus (using Aβ42) ([1]; Example 19: 10 μg/kg i.p. daily 7 days from approx. 6 months old, FIG. 24A lower panel): decreased | amyloid beta accumulation in the cortex (using Aβ40) ([1]; Example 19: 10 μg/kg i.p. daily 7 days from approx. 6 months old, FIG. 24A upper panel): decreased | plaque size ([1]; Example 19: 10 μg/kg i.p. daily 7 days, FIG. 24B): decrease | freezing time (contextual fear memory) vs vehicle ([2]; Example 16: 10 μg/kg i.p. daily 100 days from approx. 3 months old (pre-symptomatic), FIG. 15): statistically significant increase | freezing time (contextual fear memory) vs vehicle ([2]; Example 18: 10 μg/kg i.p. daily 100 days from approx. 3 months old, FIG. 22C, p<0.02): statistically significant increase | plasma levels of IL-4, IL-10, and IL-12 (IL-12(p70)) ([3]; Example 17: 10 μg/kg daily 100 days from approx. 3 months old, FIG. 17): statistically significant reduction | plasma level of p40 subunit alone (IL-12(p40)) ([3]; Example 17: 10 μg/kg daily 100 days, FIG. 17): does not reflect a change | average plasma levels of IFN-r, IL-1β, IL-2, IL-3, IL-5, IL-6, IL-7, IL-9, IL-13, IL-17, LIF, MIP-1α, and MIP-1β ([3]; Example 17: 10 μg/kg daily 100 days, FIGS. 17-20): reduced | levels of M-CSF, MIP-2, Eotaxin, GM-CSF, G-CSF, LIX, MCP-1, IL-1α and IP-10 ([3]; Example 17: 10 μg/kg daily 100 days, FIGS. 18-20): no or substantially no change | plasma levels of IL-12 (IL-12(p70)), IL-13, IL-17, IL-10, IL-4, MIP-1a, MIP-1b, and IL-2 ([3]; Example 18: 10 μg/kg i.p. daily 100 days from approx. 3 months old, FIG. 21): statistically significant reduction | plasma levels of IL-12 (IL-12(p70)), IL-13, IL-17, IL-10, MIP-1a, MIP-1b, and TNFα ([3]; Example 19: 10 μg/kg i.p. daily 7 days from approx. 6 months old (symptomatic), FIG. 23): statistically significant reduction | release of cytokines from THP-1 cells ([6]; 10 nM): reduced | release of IL-7 from human THP-1 cells ([6]; compound 5 10 nM alone, FIG. 26): decreased
